Source: PubChem BioAssay (NCI)
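48-hour exposure; five concentrations; linearly interpolated endpoints. TGI marks complete inhibition of growth.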

What was measured:
Experiment in all cases: DTP human tumour cell line panel, 48 h
A498 renal = system: A498 renal
COLO 205 colon = system: COLO 205 colon
HL-60(TB) leukemia = system: HL-60(TB) leukemia
HT29 colon = system: HT29 colon
LOX IMVI melanoma = system: LOX IMVI melanoma
MDA-N = system: MDA-N
NCI-H23 lung = system: NCI-H23 lung
NCI-H522 lung = system: NCI-H522 lung
SF-268 CNS = system: SF-268 CNS
SF-539 CNS = system: SF-539 CNS
SNB-75 CNS = system: SNB-75 CNS
SW-620 colon = system: SW-620 colon

SMILES | TGI (A498 renal) | TGI (COLO 205 colon) | TGI (HL-60(TB) leukemia) | TGI (HT29 colon) | TGI (LOX IMVI melanoma) | TGI (MDA-N) | TGI (NCI-H23 lung) | TGI (NCI-H522 lung) | TGI (SF-268 CNS) | TGI (SF-539 CNS) | TGI (SNB-75 CNS) | TGI (SW-620 colon)
CCOC(=O)C1=C(C)N(c2ccc(Cl)cc2)C2(O)C=CC(=O)C3C(=O)N(c4ccccc4)C(=O)C132 (centres undefined) | 3.22 µM | 3.26 µM | 6.21 µM | 3.18 µM | 3.69 µM | 8.92 µM | 4.75 µM | 2.38 µM | 4.54 µM | 9.4 µM | 3.25 µM | 3.68 µM
Cc1cc(=O)oc2c(CN(CCCl)CCCl)c(O)ccc12 | > 100 µM | 71.7 µM | 27.4 µM | > 100 µM | > 100 µM | > 100 µM | > 100 µM | 36.4 µM | > 100 µM | > 100 µM | > 100 µM | > 100 µM
